Source: US10064885B2, “Metabolic gene, enzyme, and flux targets for cancer therapy” (Massachusetts Institute of Technology, priority 2010, dated 2018)

Columns and labels:
Type in all cases: cell-based, human
[1] = tested on: A549 cells; test: Reductive glutamine metabolism by isotopic labeling and GC/MS in A549 cells expressing shRNAs; conditions: [1-13C]glutamine
Protocol: (§1) Cell Culture, Isotopic Labeling, and Hypoxia. All cell lines were cultured in Dulbecco's Modified Eagle Medium (DMEM; Mediatech) containing 10% fetal bovine serum (FBS; Invitrogen) and 100 U/ml penicillin/streptomycin (P/S; Mediatech) unless otherwise mentioned. Cell lines were obtained from ATCC unless otherwise noted. The VC3 glioma cell line was provided by Tim Lautenschlaeger (Ohio State University), MDA-MB-231 and HCT116 cell lines were provided by Ferdinando Chiaradonna (University of Milano-Bicocca), MRC5 cells were provided by Stephen Lippard (MIT), SN12C, ACHN, and 786-O cells were provided by Kevin Courtney and Lew Cantley (Harvard Medical School), and MCF10A cells were provided by Joan Brugge (Harvard Medical School), and Huh7 cells were provided by Mike Hemann (MIT). MCF10A cells were cultured in custom DMEM/F12 (Hyclone) containing 5% horse serum, 20 ng/ml EGF, 10 μg/ml insulin, 100 ng/ml cholera toxin, 0.5 mg/ml hydrocortisone, 100 U/ml penicillin/streptomycin, and labeled/unlabeled glucose and glutamine at 18 mM and 2.5 mM, respectively. PRC3, WT8, pTV, and pTR cell lines were subcloned from the 786-O cell line as previously described (42, 43). For isotopic labeling experiments, cells were cultured in 6 well plates in glucose- and glutamine-free DMEM (Sigma) containing 10% dialyzed FBS (Invitrogen), 100 U/ml P/S, naturally labeled glucose or glutamine, and the appropriate tracer, including [U-^13C5]glutamine (Isotec), [5-^13C]glutamine (C/D/N Isotopes), [1-^13C]glutamine, [U-^13C6]glucose, [1,2-^13C2]glucose (all from Cambridge Isotope Labs). Steady state labeling of organic and amino acids was accomplished by culturing subconfluent cells in tracer medium for 24 hours. […] The internal gas content was monitored using Fyrite gas analyzers (Bacharach) for CO2 and O2. […]
(§2) Metabolite Extraction and Gas Chromatography/Mass Spectrometry (GC/MS) Analysis. […] In some ISA experiments, cells were trypsinized, counted, and pelleted prior to lipid extraction as described above. […]

[2] = tested on: HCT116 colon carcinoma; test: Reductive carboxylation by [1-13C]glutamine labeling and GC/MS in HCT116 cells expressing shRNAs
Protocol: as §1, §2

[3] = tested on: MDA-MB-231 breast carcinoma; test: Reductive carboxylation by [1-13C]glutamine labeling and GC/MS in MDA-MB-231 cells expressing shRNAs
Protocol: as §1, §2

CCGGGTGGACATCCAGCTAAAGTATCTCGAGATACTTTAGCTGGATGTCCACTTT TT (CCGGGTGGACATCCAGCTAAAGTATCTCGAGATACTTTAGCTGGATGTCCACTTTTT; expressed or natural sequence) [IDH2 shRNA, pLKO.1 lentiviral vector shRNA targeting IDH2]
reductive carboxylation (M1 label from [1-13C]glutamine) [1]: does not affect reductive carboxylation flux
reductive carboxylation flux (M1 label from [1-13C]glutamine) [2]: does not affect reductive carboxylation flux
reductive carboxylation flux (M1 label from [1-13C]glutamine) [3]: does not affect reductive carboxylation flux
